From article PMC8155176, “Reversible modulation of circadian time with chronophotopharmacology” (Nature Communications, 2021) come the findings set out here.

Usually IC50 stands for the concentration at which inhibition is half-maximal.

One series concerns the target T1, CKIα (Homo sapiens, UniProt P48729).
T1 construct: purchased Invitrogen PV3850
Briefly: In vitro kinase assay (Kinase Glo), CKIα. The series is classed as biochemical. The settings on record: for light dependence of CKIα inhibition (in words): UV light 365 nm vs dark; for fold difference in CKIα inhibition between dark and UV-irradiated sample: trans vs cis-enriched (365 nm), 5 is stronger under light, the others weaker. As for the experimental part: A stock solution of 7.4 mM in DMSO was prepared and thermally adapted by heating to c.a. 100 °C for 1 min. Two series of eight samples were prepared with consecutive three-time dilutions from the stock solution. One of the series (‘dark’ samples) was prepared in dark Eppendorf tube, the other series (‘light’ samples) was pre-irradiated with UV light (365 nm, UV lamp Spectroline, ENB-280/FE, 1 × 8 Watt) for 45 min. For compound 9, 1 mM solution in DMSO was thermally adapted by heating to 80 °C for 2 min and split into two vials. One vial was kept in the dark and the other was irradiated with green light (530 nm, 3x Nichia NCSG219B-V1, 3 × 550 mW, Sahlmann Photochemical Solutions) for 60 min. Both dark-kept and irradiated samples were subjected to 8-point 3-fold dilutions. All the solutions were applied to the well plate under a red lamp in the dark room in order to prevent ambient-light-induced photo-isomerization.
The assays were performed on a white, solid-bottom 384-well plates. The total volume for the reaction is 10.5 µl. Firstly, a solution of CKI and peptide was added to the bottom of the well (9 µL). Next, a corresponding solution of the compound (0.5 μL, final 5% DMSO) followed by 50 μM ATP solution (1 μL) were pipetted into the upper corners of each well. The enzymatic reaction was started by spinning down the plate (1800 x g, 2 min).
By employing this method, all reactions were started at the same time, minimizing variance between different samples. Incubation for 3 h at 30 °C or 2 h at 37 °C allowed for the enzymatic phosphorylation of the substrate peptide. As the reaction started, the wells with ‘light’ samples were irradiated with UV light or kept in dark in case of experiment with compound 9. ‘Dark’ (0 min pre-irradiation) wells were covered with an aluminum sticker from the beginning. After the incubation, 10 μL Kinase Glo® (Promega) was applied into the wells and the luminescent signal was recorded by a plate reader (BioTek Synergy H1 or Cytation).
The total volume for the reaction was 10.5 µl. The reaction mixture contained the following: for CKIδ, 4 ng/µl CKIδ (14-520, Eurofins), 50 µM peptide substrate RKKKAEpSVASLTSQCSYSS corresponding to human PER2 Lys659-Ser674, and CKI buffer (40 mM Tris, 10 mM MgCl2, 0.5 mM DTT, 0.1 mg/ml BSA, pH7.4); for CKIα, 1 ng/µl CKIα (PV3850, Invitrogen), 50 µM CKI peptide substrate (60547-1, Anaspec), and CKI buffer.
The data obtained from the in vitro kinase assay was analyzed using GraphPad software, in which the luminescence outcome is normalized. Normalization is done using a luminescent output of the control that contained high concentration of longdaysin (370 µM) as 100% inhibition and DMSO for 0% inhibition. In all graphs, a dose-response fit was used to obtain
(In general: Kinase-Glo measures the ATP left after a reaction by luminescence.)

The subject of a further series is U2OS cells. Nature of the series: Circadian period assay in Bmal1-dLuc U2OS reporter cells. The format is cell-based, human. Here is the method: Next, we tested if the observed light-dependent CKIα inhibition translates into photomodulation of the circadian period in human U2OS cells (Fig. 2d). The Bmal1-dLuc reporter cell line contains the coding sequence of destabilized luciferase driven by the Bmal1 gene promoter sequence. The cell culture medium for luminescence recording includes a high concentration of luciferin (0.2 mM), a substrate for luciferase, which strongly absorbs UV light (Supplementary Fig. 30). […] As the circadian period change is directly correlated with the potency and concentration of the inhibitor[10], the cells were treated with photoswitchable modulators using a broad range of concentrations.
In comparison to the kinase assay, the direct use of UV light for preventing a thermal back-isomerization of the cis-isomer was not feasible due to the cell-damaging effect and the presence of luciferin in the medium. Therefore, the modulators were kept in the dark or photo-isomerized in DMSO prior to the addition, without further irradiation during the circadian assay. All three modulators lengthened the period in the U2OS cells both in the dark and upon irradiation (Fig. 2d). […] Altogether, based on the efficient generation of the cis-isomer under irradiation, retained potency and promising light-modulation of CKIα inhibition, the meta-substituted modulator 4 was identified as representing lead substitution pattern for further investigation.
Stable U2OS reporter cells harboring Bmal1-dLuc reporter were suspended in phenol red-free culture medium [DMEM (D2902, Sigma) supplemented with 10% fetal bovine serum, 3.5 mg/mL D-glucose, 3.7 mg/mL sodium bicarbonate, 0.29 mg/mL L-glutamine, 100 units/mL penicillin, and 100 µg/mL streptomycin] and plated onto a white, solid-bottom 384-well plates at 30 µL (3000 cells) per well. After 2 days, 40 µL of phenol red-free explant medium [DMEM (D2902, Sigma) supplemented with 2% B27 (Gibco), 10 mM HEPES, 3.5 mg/mL D-glucose, 0.38 mg/mL sodium bicarbonate, 0.29 mg/mL L-glutamine, 100 units/mL penicillin, 100 µg/mL streptomycin, and 0.2 mM luciferin; pH 7.2] was dispensed into each well, followed by the application of 0.5 μL of compounds (dissolved in DMSO; final 0.7% DMSO; pre-irradiated with UV for 60 min, white LED for 10 min, and/or green LED for 60 min when indicated). The plate was covered with an optically clear film, and subjected to irradiation with 530 nm LED lamp (3 × 550 mW, λmax = 530 nm, FWHM 36 nm, Sahlmann Photochemical Solutions) or 400 nm LED lamp (3 × 1000 mW, λmax = 400 nm, FWHM 11.9 nm, Sahlmann Photochemical Solutions) from 12 cm distance for 30 min. Compound handling and irradiation were conducted in a dark room under red lamp illumination. Luminescence was recorded every 100 min in a microplate reader, Infinite M200Pro (Tecan). For the phase control experiments, cellular light irradiation was performed in a dark 32 °C room and luminescence was recorded in a microplate reader Synergy H1 (BioTek) placed in the same room, to avoid possible effect of transient temperature change on the phase. Circadian period and phase were determined from luminescence rhythms by a curve fitting program MultiCycle (Actimetrics). Data from the first day was excluded from analysis, because of transient changes in luminescence upon medium change. Statistical significance was evaluated using two-way analysis of variance (ANOVA) followed by a Sidak’s multiple comparisons test or one-way ANOVA followed by a Tukey’s multiple comparisons test using Prism software (GraphPad Software).

Series [1] is described as follows: Chemical stability under dark and irradiation conditions followed by LCMS. The series is classed as physicochemical. The settings on record: 40 µM in kinase assay buffer or cell culture medium, dark, 365 nm 3 h, 400 nm 30 min. Here is the method:
LCMS traces of stability studies
Supplementary Figure 8. Chemical stability of compound 3 under dark and irradiation conditions followed by LCMS. All the samples were prepared as 40 µM solution in buffer or cell culture medium. ‘Buffer’ and ‘medium’ samples were injected immediately upon dissolving compound 3, ‘buffer_3h_dark’ was injected after 3 h of keeping the solution in dark, ‘buffer_3h_365nm’ after irradiation of the sample for 3 h with UV light in kinase assay buffer, and ‘medium_30min_400nm’ after 30 min of irradiation with 400 nm in cell culture medium. The trans-isomer was followed at the retention time of 10.41-10.47 min and the cis-isomer at the retention time of 8.84-8.90 min. Mass spectra of both isomers in different […]
(1 picture or pasted object on this page, not shown here)

A short description of series [2]: Solubility test in kinase assay buffer and cell culture medium. The series is classed as physicochemical. Here is the method: Solubility studies were performed in kinase assay buffer and cell culture medium. Half of the solutions of the compounds in DMSO was thermally adapted (‘Dark’) and the other half was irradiated for 1 h with UV light (λmax = 365 nm, ‘Light’) green light in case of 9 (λmax = 530 nm, ‘Light’). Solubility is indicated in the Supplementary Table 1. […]
precipitation were excluded from the dose-response curves in the enzymatic assay .
Supplementary Table 1. Solubility of the photos witchable compounds in the highest concentrations that were used in the enzymatic assay.
Kinase assay buffer Cell culture medium […]

[3] abbreviates: irradiated with UV light (365 nm) before and during the assay, cis-enriched, read-out: CKIα IC50, light.
[4] abbreviates: thermally adapted trans-isomer kept in the dark, read-out: CKIα IC50, dark.

Structures are written as SMILES. “Also recorded” adds a separate entry of the source. Read-outs that look alike come from different tables or passages of the source.

T1 sequence (P48729 whole entry): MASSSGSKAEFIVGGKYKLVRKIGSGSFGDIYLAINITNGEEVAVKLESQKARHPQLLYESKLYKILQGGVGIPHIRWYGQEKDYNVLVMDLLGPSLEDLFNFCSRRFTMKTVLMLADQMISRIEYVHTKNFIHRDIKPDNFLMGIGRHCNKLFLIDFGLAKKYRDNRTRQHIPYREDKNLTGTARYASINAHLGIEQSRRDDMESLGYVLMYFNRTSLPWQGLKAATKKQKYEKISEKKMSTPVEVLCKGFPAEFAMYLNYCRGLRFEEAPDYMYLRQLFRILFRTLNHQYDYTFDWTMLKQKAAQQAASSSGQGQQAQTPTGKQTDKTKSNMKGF

With `CC(C)n1cnc2c(NCc3ccc(/N=N/c4ccccc4)cc3)ncnc21` [Compound 3], the “light dependence of CKIα inhibition (in words)” value on CKIα is “no obvious light-dependent changes of CKIα inhibition”. In addition, the IC50 at CKIα (setting [3]) was found to be 4.5 µM; on CKIα (setting [4]), 3.6 µM. For the same compound, the “period lengthening in U2OS cells” value with U2OS cells (24 μM) amounted to 4 h. Besides, the “light-modulation of period lengthening” value in the series with U2OS cells (24 μM, UV pre-irradiated vs dark) is reported as “no light-modulation”. Besides, in series [1], the “chemical stability (reduction or oxidation of the azo group)” value is “Products of reduction or oxidation were not observed”.
`COc1ccc(/N=N/c2cccc(CNc3ncnc4c3ncn4C(C)C)c2)cc1` [Compound 6]: the IC50 on CKIα (setting [3]) was found to be 13.3 µM; at CKIα (setting [4]), 2.8 µM. Also, the “fold difference in CKIα inhibition between dark and UV-irradiated sample” value on CKIα stood at 5 fold. In addition, the “chemical stability (reduction or oxidation of the azo group)” value in series [1] is “Products of reduction or oxidation were not observed”. The “solubility in aqueous media (in words)” value in series [2] is recorded as “increased solubility”.
`CC(C)n1cnc2c(NCc3cccc(/N=N/c4ccccc4)c3)ncnc21` [Compound 4]: at CKIα, the “light dependence of CKIα inhibition (in words)” value is reported as “substantial light-induced inactivation”; the “fold difference in CKIα inhibition between dark and UV-irradiated sample” value came to 4.5 fold. In addition, the half-inhibitory concentration (IC50) on CKIα (setting [3]) stood at 8.6 µM. For the same compound, the IC50 on CKIα (setting [4]) was determined as 1.9 µM. The “light-induced deactivation of period lengthening” value in the series with U2OS cells (3 μM, UV pre-irradiated vs dark) is “ca. 2 h”. Moreover, in series [1], the “chemical stability (reduction or oxidation of the azo group)” value was “Products of reduction or oxidation were not observed”.
In the case of `CC(C)n1cnc2c(NCc3cccc(/N=N/c4c(F)cccc4F)c3)ncnc21` [Compound 7], the figures for the IC50 at CKIα (setting [3]) and on CKIα (setting [4]) were 9.3 µM and 2.4 µM, respectively. Also, the “fold difference in CKIα inhibition between dark and UV-irradiated sample” value on CKIα is on record as “four times less potent”. Moreover, the “effect of UV light irradiation on period lengthening” value in the series with U2OS cells (UV (365 nm) pre-irradiated) is on record as “suppressed by UV light irradiation; also recorded: most pronounced period lengthening deactivation”. The “recovery of biological activity upon back-isomerization with white light” value in the series with U2OS cells (UV light followed by white light) is listed as “partial recovery”. Moreover, the “period lengthening effect under dark conditions” value with U2OS cells (dark) is “strong period lengthening effect”. The “chemical stability (reduction or oxidation of the azo group)” value in series [1] is “Products of reduction or oxidation were not observed; also recorded: both chemical and photochemical stability”.
As to `CC(C)n1cnc2c(NCc3ccccc3/N=N/c3ccccc3)ncnc21` [Compound 5], the IC50 on CKIα (setting [3]) amounted to 54 µM; on CKIα (setting [4]) it was 96 µM. Also, the “light-induced change of period lengthening” value with U2OS cells (72 μM, UV pre-irradiated vs dark) is on record as “weak activation”. Besides, in series [1], the “chemical stability (reduction or oxidation of the azo group)” value is recorded as “Products of reduction or oxidation were not observed”. In addition, the “solubility in aqueous media (in words)” value in series [2] is recorded as “solubility issues at high concentrations”.
With `CC(C)n1cnc2c(NCc3cccc(C(F)(F)F)c3)ncnc21` [longdaysin, reference compound], the “light dependence of CKIα inhibition (in words)” value at CKIα was “negligible effect of UV irradiation on the potency”. For the same compound, the half-maximal inhibitory concentration (IC50) at CKIα (setting [3]) worked out at 4.3 µM. In addition, in the series on U2OS cells (control experiment), the “influence of green or violet light on the period change” value is “negligible influence”.
